Results taken from the supplement of paper PMC10307832.

How the values were obtained:
Assay in all cases: relative viability (nuclei count vs DMSO), 5 days (fraction); higher = more cells survive
HCC-15 = system: HCC-15
Summary of the method: (§1)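 The day after seeding in 1536-well plates, lung cancer cell lines were treated by pin tool with a single drug, or with a fixed anchor-drug dose together with five library-drug doses (not always all listed) in √10 steps. After 5 days, a combined fix-and-stain solution (final 0.05% Triton X-100, 1% formaldehyde, 1 ug/ml Hoechst) was added. Nuclei counted on 4× images gave relative viability as treated counts over vehicle counts, reported as the median of duplicate plates.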

HCC-366 = system: HCC-366
Summary of the method: as §1

NCI-H3122 = system: NCI-H3122
Summary of the method: as §1

RERF-LC-KJ = system: RERF-LC-KJ
Summary of the method: as §1

SK-LU-1 = system: SK-LU-1
Summary of the method: as §1

HCC-78 = system: HCC-78
Summary of the method: as §1

NCI-H1755 = system: NCI-H1755
Summary of the method: as §1

NCI-H1993 = system: NCI-H1993
Summary of the method: as §1

HCC-827 = system: HCC-827
Summary of the method: as §1

COR-L23 = system: COR-L23
Summary of the method: as §1

201T = system: 201T
Summary of the method: as §1

NCI-H1975 = system: NCI-H1975
Summary of the method: as §1

## O=C(O)CCCCC(CCSCc1ccccc1)SCc1ccccc1 (stereo unspecified) [CPI-613] + CC(=O)Nc1cccc(-n2c(=O)n(C3CC3)c(=O)c3c(Nc4ccc(I)cc4F)n(C)c(=O)c(C)c32)c1 [Trametinib] (partner 0.02 µM)
HCC-15; first compound 5 µM
  relative viability: 0.387
HCC-15; first compound 15.81 µM
  relative viability: 0.363
HCC-15; first compound 50 µM
  relative viability: 0.363
HCC-15; first compound 158.11 µM
  relative viability: 0.167
HCC-15; first compound 500 µM
  relative viability: 0.0261
HCC-366; first compound 5 µM
  relative viability: 0.367
HCC-366; first compound 15.81 µM
  relative viability: 0.321
HCC-366; first compound 50 µM
  relative viability: 0.29
HCC-366; first compound 158.11 µM
  relative viability: 0.12
HCC-366; first compound 500 µM
  relative viability: 0.0064
NCI-H3122; first compound 5 µM
  relative viability: 0.232
NCI-H3122; first compound 15.81 µM
  relative viability: 0.25
NCI-H3122; first compound 50 µM
  relative viability: 0.295
NCI-H3122; first compound 158.11 µM
  relative viability: 0.215
NCI-H3122; first compound 500 µM
  relative viability: 0.227
RERF-LC-KJ; first compound 5 µM
  relative viability: 0.76
RERF-LC-KJ; first compound 15.81 µM
  relative viability: 0.878
RERF-LC-KJ; first compound 50 µM
  relative viability: 0.845
RERF-LC-KJ; first compound 158.11 µM
  relative viability: 0.458
RERF-LC-KJ; first compound 500 µM
  relative viability: 0.44
SK-LU-1; first compound 5 µM
  relative viability: 0.452
SK-LU-1; first compound 15.81 µM
  relative viability: 0.477
SK-LU-1; first compound 50 µM
  relative viability: 0.365
SK-LU-1; first compound 158.11 µM
  relative viability: 0.366
SK-LU-1; first compound 500 µM
  relative viability: 0.129
HCC-78; first compound 15.81 µM
  relative viability: 0.729
HCC-78; first compound 50 µM
  relative viability: 0.788
HCC-78; first compound 158.11 µM
  relative viability: 0.714
HCC-78; first compound 500 µM
  relative viability: 0.716
NCI-H1755; first compound 5 µM
  relative viability: 0.712
NCI-H1755; first compound 15.81 µM
  relative viability: 0.775
NCI-H1755; first compound 50 µM
  relative viability: 0.75
NCI-H1755; first compound 158.11 µM
  relative viability: 0.702
NCI-H1755; first compound 500 µM
  relative viability: 0.69
NCI-H1993; first compound 5 µM
  relative viability: 0.466
NCI-H1993; first compound 15.81 µM
  relative viability: 0.456
NCI-H1993; first compound 50 µM
  relative viability: 0.528
NCI-H1993; first compound 158.11 µM
  relative viability: 0.51
NCI-H1993; first compound 500 µM
  relative viability: 0.291
HCC-827; first compound 5 µM
  relative viability: 0.518
HCC-827; first compound 15.81 µM
  relative viability: 0.555
HCC-827; first compound 50 µM
  relative viability: 0.571
HCC-827; first compound 158.11 µM
  relative viability: 0.518
HCC-827; first compound 500 µM
  relative viability: 0.483
COR-L23; first compound 5 µM
  relative viability: 0.651
COR-L23; first compound 15.81 µM
  relative viability: 0.524
COR-L23; first compound 50 µM
  relative viability: 0.63
COR-L23; first compound 158.11 µM
  relative viability: 0.198
COR-L23; first compound 500 µM
  relative viability: 0.0522
201T; first compound 5 µM
  relative viability: 0.709
201T; first compound 15.81 µM
  relative viability: 0.701
201T; first compound 50 µM
  relative viability: 0.668
201T; first compound 158.11 µM
  relative viability: 0.421
201T; first compound 500 µM
  relative viability: 0.408
NCI-H1975; first compound 5 µM
  relative viability: 0.395
NCI-H1975; first compound 15.81 µM
  relative viability: 0.355
